The text below walks through data of ChEMBL document CHEMBL3886157, “Heterocyclic carboxamides as modulators of kinase activity” (2015).

For orientation: pIC50 means the IC50 on a negative log10 scale, so that one unit is a factor of ten.

pIC50: −log10 of the molar value.

Assay [1] has as its target Ribosomal protein S6 kinase beta-1 (Homo sapiens, UniProt P23443, T412E). Nature of the assay: P70S6K Enzyme Assay: P70S6K inhibitor compounds are diluted and plated in 96 well plates. A reaction mixture including the following components is then added to the compound plate to initiate the enzyme reaction; P70S6K (3 nM, T412E mutant, Millipore) is mixed with 24 uM ATP in an assay buffer containing 100 mM Hepes (pH 7.5), 5 mM MgCl2, 1 mM DTT, 0.015% Brij and 1 uM of the substrate peptide FITC-AHA-[…]-OH (derived from the S6 ribosomal protein sequence, FITC=fluorescein isothiocyanate, AHA=6-aminohexanoic acid). The reaction is incubated for 90 min at 25° C., before the addition of 10 mM EDTA to stop the reaction. The proportion of substrate and product (phosphorylated) peptide is analysed on a Caliper Life Sciences Lab Chip 3000, using a pressure of -1.4 psi, and upstream and downstream voltages of -3000 and -700 respectively. Product peaks are resolved before substrate peaks on the resulting chromatograms.

Assay [2] addresses RAC-alpha serine/threonine-protein kinase (Homo sapiens, UniProt P31749). In words: AKT Enzyme Assay: A TTP Mosquito liquid handling instrument is used to place […] of the appropriate concentration of inhibitor in 100% DMSO (for a dose response curve calculation) into each well of a 384-well plate. To this reaction components are added to a final volume of 12.50 0.1 ng/uL His-AKT (Full Length), (Invitrogen, Part # P2999, Lot #641228C). 160 uM ATP (Fluka, 02055) 1 mM DTT (Sigma, D0632) 1 mM MgCl2 (Sigma, M1028) 1 uM substrate peptide (sequence FITC-AHA-[…]-NH2), synthesized by Tufts Peptide Synthesis service. 100 mM HEPES pH 7.5 (Calbiochem, 391338) 0.015% Brij-35 (Sigma, B4184)The reaction is incubated for 90 min at 25° C, and then stopped by the addition of 70 ul of Stop buffer (100 mM HEPES pH 7.5, 0.015% Brij-35, 10 mM EDTA (Sigma, E7889)).The plate is read on a Caliper LC 3000 in an Off-Chip mobility shift assay format, using the following parameters for a 12-sipper chip: screening pressure -2.3 psi, upstream voltage -500, and downstream voltage -3000.

Chain of RAC-alpha serine/threonine-protein kinase (P31749 whole entry): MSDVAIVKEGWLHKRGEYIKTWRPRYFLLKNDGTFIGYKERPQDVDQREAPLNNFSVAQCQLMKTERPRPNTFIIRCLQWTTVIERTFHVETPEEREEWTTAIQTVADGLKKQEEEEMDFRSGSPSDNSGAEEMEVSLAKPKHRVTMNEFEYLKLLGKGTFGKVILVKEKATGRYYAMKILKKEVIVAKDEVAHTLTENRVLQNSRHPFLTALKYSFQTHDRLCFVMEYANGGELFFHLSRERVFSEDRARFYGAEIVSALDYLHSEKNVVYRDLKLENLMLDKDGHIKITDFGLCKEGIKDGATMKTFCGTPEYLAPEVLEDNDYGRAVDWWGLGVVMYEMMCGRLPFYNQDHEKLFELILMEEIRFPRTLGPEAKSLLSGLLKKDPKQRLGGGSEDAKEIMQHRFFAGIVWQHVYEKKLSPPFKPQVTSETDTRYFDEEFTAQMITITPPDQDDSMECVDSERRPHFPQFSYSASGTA
Chain of Ribosomal protein S6 kinase beta-1 (P23443 whole entry T412E): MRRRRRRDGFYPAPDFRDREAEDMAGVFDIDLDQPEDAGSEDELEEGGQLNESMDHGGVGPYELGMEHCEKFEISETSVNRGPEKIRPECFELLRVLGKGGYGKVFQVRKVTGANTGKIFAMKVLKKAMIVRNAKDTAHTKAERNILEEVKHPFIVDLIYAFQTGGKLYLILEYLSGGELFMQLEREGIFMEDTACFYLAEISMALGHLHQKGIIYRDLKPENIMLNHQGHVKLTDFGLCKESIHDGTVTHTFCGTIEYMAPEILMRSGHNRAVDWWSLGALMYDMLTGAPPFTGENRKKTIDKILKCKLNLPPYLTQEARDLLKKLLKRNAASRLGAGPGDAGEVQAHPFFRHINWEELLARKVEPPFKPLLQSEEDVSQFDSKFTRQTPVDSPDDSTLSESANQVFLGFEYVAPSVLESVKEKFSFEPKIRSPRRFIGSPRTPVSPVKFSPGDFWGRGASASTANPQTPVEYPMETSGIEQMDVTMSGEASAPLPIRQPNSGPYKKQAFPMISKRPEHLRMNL

For the molecule `CN(Cc1ccc(Cl)c(Cl)c1)C1CCN(c2ccc(C(N)=O)c3ncncc23)C1` (racemic), the pIC50 in assay [1] is 6.24.
Consider `NC(=O)c1ccc(N2CCN(c3ccc(Cl)c(Cl)c3)CC2)c2cncnc12`, for which the pIC50 in assay [2] and in assay [1] was less than 4.00 throughout.
For `NC(=O)c1ccc(N2CCC(NCc3ccc(Cl)c(Cl)c3)C2)c2cncnc12` (racemic), the pIC50 in assay [1] is 6.31.
As for `NC(=O)c1ccc(N2CCC(N)(C(=O)Nc3ccc(F)c(C(F)(F)F)c3)C2)c2cncnc12` (racemic), the pIC50 in assay [1] is 6.57.
On the same count and under the same terms, the result for `CNC[C@@H](Nc1ccc(C(N)=O)c2ncncc12)c1cccc(F)c1` reads less than 6.00; that for `NC(=O)c1ccc(NC(=O)C2CNC[C@@H]2c2cccc(F)c2)c2cccnc12` (some centres not stated), less than 6.00; that for `NC(=O)c1ccc(NCC(c2ccccc2)N2CCNCC2)c2cncnc12` (racemic), 6.77.
Consider `NC(=O)c1ccc(NCCc2ccc(Cl)c(Cl)c2)c2cncnc12`, for which the pIC50 is less than 4.00 in assay [2] and 7.01 in assay [1].
The corresponding values for `NC(=O)c1ccc(NCc2ccccc2)c2cncnc12` are 4.24 and 6.16.
